What was measured:
Assay in all cases: relative viability (nuclei count vs DMSO), 5 days (fraction); higher = more cells survive
[1] = test system: HCC-827
Procedure, shortened: (§1)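 Lung cancer cell lines in 1536-well plates were dosed by pin tool the day after seeding, either with one drug alone or with a fixed anchor-drug dose plus five library-drug doses (not always all listed) in √10 steps. After 5 days, cells were fixed and their nuclei stained in one step (final 0.05% Triton X-100, 1% formaldehyde, 1 ug/ml Hoechst), then counted on 4× images. Relative viability is the nuclei count in treated wells divided by that in vehicle wells. Values are medians of duplicate plates.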

[2] = test system: EPLC-272H
Procedure, shortened: as §1

[3] = test system: NCI-H2342
Procedure, shortened: as §1

[4] = test system: SW 1573
Procedure, shortened: as §1

[5] = test system: EKVX
Procedure, shortened: as §1

[6] = test system: NCI-H647
Procedure, shortened: as §1

[7] = test system: LOU-NH91
Procedure, shortened: as §1

[8] = test system: NCI-H1975
Procedure, shortened: as §1

[9] = test system: NCI-H1437
Procedure, shortened: as §1

[10] = test system: HCC-44
Procedure, shortened: as §1

[11] = test system: H3255
Procedure, shortened: as §1

[12] = test system: NCI-H650
Procedure, shortened: as §1

[13] = test system: NCI-H1666
Procedure, shortened: as §1

[14] = test system: BEN
Procedure, shortened: as §1

[15] = test system: NCI-H2087
Procedure, shortened: as §1

[16] = test system: COR-L 105
Procedure, shortened: as §1

[17] = test system: LU99A
Procedure, shortened: as §1

[18] = test system: NCI-H2085
Procedure, shortened: as §1

[19] = test system: LCLC-97TM1
Procedure, shortened: as §1

[20] = test system: 201T
Procedure, shortened: as §1

[21] = test system: NCI-H2170
Procedure, shortened: as §1

[22] = test system: PC-3 [JPC-3]
Procedure, shortened: as §1

## COc1nc(C)cnc1NS(=O)(=O)c1cccnc1-c1ccc(-c2nnco2)cc1 [Zibotentan] + CC(=O)c1c(C)c2cnc(Nc3ccc(N4CCNCC4)cn3)nc2n(C2CCCC2)c1=O [Palbociclib] (partner 0.5 µM)
[1]; first compound 0.08 µM
  relative viability: 0.437
[1]; first compound 0.253 µM
  relative viability: 0.49
[1]; first compound 0.8 µM
  relative viability: 0.454
[1]; first compound 2.53 µM
  relative viability: 0.487
[2]; first compound 0.08 µM
  relative viability: 0.348
[2]; first compound 0.253 µM
  relative viability: 0.246
[2]; first compound 0.8 µM
  relative viability: 0.366
[2]; first compound 2.53 µM
  relative viability: 0.33
[3]; first compound 0.08 µM
  relative viability: 0.507
[3]; first compound 0.253 µM
  relative viability: 0.557
[3]; first compound 0.8 µM
  relative viability: 0.558
[3]; first compound 2.53 µM
  relative viability: 0.506
[4]; first compound 0.08 µM
  relative viability: 0.421
[4]; first compound 0.8 µM
  relative viability: 0.385
[4]; first compound 2.53 µM
  relative viability: 0.363
[5]; first compound 0.08 µM
  relative viability: 0.276
[5]; first compound 0.253 µM
  relative viability: 0.354
[5]; first compound 0.8 µM
  relative viability: 0.37
[5]; first compound 2.53 µM
  relative viability: 0.5
[6]; first compound 0.08 µM
  relative viability: 0.471
[6]; first compound 0.253 µM
  relative viability: 0.358
[6]; first compound 0.8 µM
  relative viability: 0.361
[6]; first compound 2.53 µM
  relative viability: 0.469
[7]; first compound 0.08 µM
  relative viability: 0.483
[7]; first compound 0.253 µM
  relative viability: 0.544
[7]; first compound 0.8 µM
  relative viability: 0.504
[7]; first compound 2.53 µM
  relative viability: 0.476
[8]; first compound 0.08 µM
  relative viability: 0.517
[8]; first compound 0.253 µM
  relative viability: 0.526
[8]; first compound 0.8 µM
  relative viability: 0.553
[8]; first compound 2.53 µM
  relative viability: 0.596
[9]; first compound 0.08 µM
  relative viability: 0.327
[9]; first compound 0.253 µM
  relative viability: 0.296
[9]; first compound 0.8 µM
  relative viability: 0.288
[9]; first compound 2.53 µM
  relative viability: 0.304
[10]; first compound 0.08 µM
  relative viability: 0.98
[10]; first compound 0.253 µM
  relative viability: 0.827
[10]; first compound 0.8 µM
  relative viability: 0.949
[10]; first compound 2.53 µM
  relative viability: 1
[11]; first compound 0.08 µM
  relative viability: 0.317
[11]; first compound 0.253 µM
  relative viability: 0.318
[11]; first compound 0.8 µM
  relative viability: 0.355
[11]; first compound 2.53 µM
  relative viability: 0.283
[12]; first compound 0.08 µM
  relative viability: 0.339
[12]; first compound 0.253 µM
  relative viability: 0.371
[12]; first compound 0.8 µM
  relative viability: 0.351
[12]; first compound 2.53 µM
  relative viability: 0.355
[13]; first compound 0.08 µM
  relative viability: 0.682
[13]; first compound 0.253 µM
  relative viability: 0.594
[13]; first compound 0.8 µM
  relative viability: 0.694
[13]; first compound 2.53 µM
  relative viability: 0.692
[14]; first compound 0.08 µM
  relative viability: 0.496
[14]; first compound 0.253 µM
  relative viability: 0.493
[14]; first compound 0.8 µM
  relative viability: 0.451
[14]; first compound 2.53 µM
  relative viability: 0.44
[15]; first compound 0.08 µM
  relative viability: 0.221
[15]; first compound 0.253 µM
  relative viability: 0.263
[15]; first compound 0.8 µM
  relative viability: 0.297
[15]; first compound 2.53 µM
  relative viability: 0.268
[16]; first compound 0.08 µM
  relative viability: 0.381
[16]; first compound 0.253 µM
  relative viability: 0.375
[16]; first compound 0.8 µM
  relative viability: 0.373
[16]; first compound 2.53 µM
  relative viability: 0.45
[17]; first compound 0.08 µM
  relative viability: 0.394
[17]; first compound 0.253 µM
  relative viability: 0.442
[17]; first compound 0.8 µM
  relative viability: 0.462
[17]; first compound 2.53 µM
  relative viability: 0.402
[18]; first compound 0.08 µM
  relative viability: 0.47
[18]; first compound 0.253 µM
  relative viability: 0.466
[18]; first compound 0.8 µM
  relative viability: 0.496
[18]; first compound 2.53 µM
  relative viability: 0.47
[19]; first compound 0.08 µM
  relative viability: 0.236
[19]; first compound 0.253 µM
  relative viability: 0.247
[19]; first compound 0.8 µM
  relative viability: 0.228
[19]; first compound 2.53 µM
  relative viability: 0.253
[20]; first compound 0.08 µM
  relative viability: 0.357
[20]; first compound 0.253 µM
  relative viability: 0.346
[20]; first compound 0.8 µM
  relative viability: 0.359
[20]; first compound 2.53 µM
  relative viability: 0.363
[21]; first compound 0.08 µM
  relative viability: 0.389
[21]; first compound 0.253 µM
  relative viability: 0.369
[21]; first compound 0.8 µM
  relative viability: 0.403
[21]; first compound 2.53 µM
  relative viability: 0.371
[22]; first compound 0.08 µM
  relative viability: 0.556
[22]; first compound 0.253 µM
  relative viability: 0.548
[22]; first compound 0.8 µM
  relative viability: 0.537
[22]; first compound 2.53 µM
  relative viability: 0.581
